Test results published in patent US20240210412A1, “SULFONYL-TRIAZOLE COMPOUNDS USEFUL AS LIGANDS AND INHIBITORS OF PROSTAGLANDIN REDUCTASE 2” (University of Virginia Patent Foundation, priority 2021, published 2024).
“Also recorded” adds a separate entry of the source.

Legend:
PTGR2 = molecular target: T1, PTGR2 (Homo sapiens, UniProt Q8N8N7); test: gel-based ABPP, HHS-475 probe, HEK293T cells expressing recombinant PTGR2; assay type: cell-based; details: live HEK293T cells, ligand 25 μM or varying, 2 h; HHS-475 100 μM
T1 construct: host or cells: HEK293T
T1 sequence (Q8N8N7 whole entry): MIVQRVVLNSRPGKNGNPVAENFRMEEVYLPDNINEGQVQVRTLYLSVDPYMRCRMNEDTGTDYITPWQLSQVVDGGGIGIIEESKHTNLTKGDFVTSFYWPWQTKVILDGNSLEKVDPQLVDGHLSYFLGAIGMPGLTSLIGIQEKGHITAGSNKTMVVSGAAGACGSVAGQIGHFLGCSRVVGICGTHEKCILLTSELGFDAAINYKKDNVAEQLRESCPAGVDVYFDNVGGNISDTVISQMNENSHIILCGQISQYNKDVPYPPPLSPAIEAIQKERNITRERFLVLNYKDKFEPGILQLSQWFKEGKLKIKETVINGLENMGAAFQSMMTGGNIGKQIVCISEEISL
Protocol: HEK293T cells at 30-50% confluency were transfected with 2.6 μg of FAH or PTGR2 plasmid DNA in a serum-free media/polyethyleneimine solution for 48 hrs. The cells were washed once with warm, sterile DPBS (1×, 5 mL), and then 10 mL of serum-free media (supplemented with 1% L-glutamine) containing either DMSO or SuTEx fragment (in DMSO) was added. After 2 hrs, the cells were treated with 100 μM of SuTEx alkyne probe (HHS-475, 10 μL of 1000× DMSO stock) and incubated for an additional 2 hrs. The media was aspirated and cells washed with cold PBS (5 mL) and harvested. Cells were spun at 500×g for 5 min at 4° C. and supernatant was removed. Pellets were resuspended in 1 mL of cold DPB S and spun at 1,400×g for 3 min at 4° C. and supernatant was removed. The cells were lysed in PBS by sonication and fractionated (100,000×g, 45 min, 4° C.). The soluble fraction was diluted to 1 mg/mL in PBS and 49 μL was used for analysis. […] The samples were analyzed by SDS-PAGE (30 μL) and imaged by in-gel fluorescence scanning.
Confirmatory studies were also performed on prostaglandin reductase 2 (PTGR2) because of its role in the reduction of the bioactive lipid, 15-keto-PGE2^[17]. […] The remaining fluorescent signal detected on PTGR2 Y100F mutant protein is likely due to probe labeling of additional tyrosine sites identified on wild-type protein.
To assess the PTGR2 inhibitory activity of AMC-0702 and AMC-0703, HEK293T cells expressing PTGR2 were pretreated with vehicle, HHS-0101 (25 μM), HHS-0701 (25 μM), AMC-0702 (25 μM-0.1 μM), or AMC-0703 (25 μM-0.1 μM) for 2 hours followed by HHS-475 probe labelling in live cells (25 μM, 2 hours). Cells were lysed and probe-modified PTGR2 in proteomes detected by copper-catalyzed azide-alkyne cycloaddition conjugation of rhodamine-azide, SDS-PAGE, and in-gel fluorescence scanning. Inhibitory activity of compounds is determined by reductions in fluorescent band intensity from HHS-475 probe labeling of proteins detected in proteomes. […]

[1] = molecular target: T2, Q8N8N7 (prostaglandin reductase 2, PTGR2) (Homo sapiens, UniProt Q8N8N7); test: SILAC LC-MS ABPP; assay type: cell-based
T2 construct: endogenous in cells; host or cells: DM93 cells (SILAC), live-cell treatment
T2 sequence (Q8N8N7 whole entry, one chain of several): as the sequence (Q8N8N7 whole entry) above
Protocol: Cells were grown to 90-95% confluence before being washed once with warm, sterile DPBS (1×, 5 mL), followed by addition of 10 mL of serum-free media (supplemented with 1% L-glutamine) containing either DMSO or SuTEx fragment (in DMSO) was added. Light cells were treated with DMSO vehicle while the heavy cells were treated with DMSO or SuTEx fragment (in DMSO) and incubated for 2 hrs. After 2 hrs, the cells were treated with SuTEx alkyne probe (HHS475, 10 μL of 1000× DMSO stock) and incubated for an additional 2 hrs. The media was aspirated and cells washed with cold PBS (5 mL) and harvested. Cells were spun at 500×g for 5 min at 4° C. followed by removal of supernatant. Pellets were resuspended in 1 mL of cold DPBS and spun at 1,400×g for 3 min at 4° C. followed by removal of supernatant. The cells were lysed in PBS by sonication and fractionated (100,000×g, 45 min, 4° C.).The light and heavy soluble fractions were diluted to 2.3 mg/mL in PBS and 432 μL were used for analysis (1 mg total protein). The probe-modified proteomes were conjugated to desthiobiotin-PEG3-azide (10 μl of 10 mM stock in DMSO; 200 μM final concentration) using TCEP (10 μl of fresh 50 mM stock in water, 1 mM final concentration), TBTA ligand (33 μl of a 1.7 mM 4:1 t-butanol/DMSO stock, 100 μM final concentration) and CuSO4 (10 μl of 50 mM stock, 1 mM final concentration). Samples were vortexed to mix and incubated for 1 hr at room temperature. The heavy and light proteomes were mixed 1:1 and the subsequent steps, including LC-MS/MS data analysis, were performed as previously described^[8a].
Coupling cell-based screens with chemical proteomics can facilitate the identification of target protein and binding sites that engage and are irreversibly modified by covalent ligands^[12]. In these assays, covalent ligands block SuTEx activity-based probe (ABP) labeling at protein sites, and the competition of probe labeling can be used to quantify potency and selectivity across the proteome^[10a]. To facilitate quantitative chemical proteomics, DM93 melanoma cells were cultured using stable isotopic labeling by amino acids in cell culture (SILAC)^[13]. Cells cultured in “light” media were treated with dimethyl sulfoxide (DMSO) vehicle while cells cultured in “heavy” media were treated with SuTEx ligand (25 μM, 2 hours, 37° C.). Next, cells were treated with HHS-475 probe (100 μM, 2 hours, 37° C.) followed by lysis and processing of proteomes for analysis. Probe-modified proteins from the soluble fraction were conjugated to a desthiobiotin-azide tag by copper-catalyzed azide-alkyne cycloaddition (CuAAC)^[14] followed by mixing of the light and heavy proteomes. The combined proteomes were digested with trypsin protease to produce probe-modified peptides, followed by enrichment and purification by avidin affinity chromatography. Probe-modified peptides were resolved, identified, and quantified by high-resolution liquid chromatography-tandem mass spectrometry (LC-MS/MS). Resultant data were analyzed as previously described^[8a, 10a]. Table 2, below, lists sites of modification targeted by sulfonyl-triazole compounds HHS-0101, HHS-0201, HHS-0301, HHS-0401, and HHS-0701. The format of the table is as follows: protein Uniprot accession number (see uniprot.org); tyrosine site (amino acid position) modified; treatment (sulfonyl-triazole compound identification number, followed by Y (where if multiple compounds modify the same site, the compounds are separated by vertical lines).
Confirmatory studies were also performed on prostaglandin reductase 2 (PTGR2) because of its role in the reduction of the bioactive lipid, 15-keto-PGE2^[17]. […] The chemical proteomic studies also identified additional tyrosine sites (e.g. Y265) competed by HHS-0701 albeit to a lesser degree (SR<5) compared with Y100. […]

Compound | blockade of HHS-475 labeling of PTGR2 (PTGR2) | SILAC ratio (SR), PTGR2 Y100 ([1]; 25 μM 2 h, live DM93 cells) | SILAC ratio (SR), PTGR2 Y265 ([1]; 25 μM 2 h, live DM93 cells) | liganded tyrosine site 100 ([1]; 25 μM 2 h, live DM93 cells) | PTGR2 Y100 liganded ([1]; ligand-treated DM93 cells) [%] | liganded tyrosine site 265 ([1]; 25 μM 2 h, live DM93 cells)
O=C(c1ccc(S(=O)(=O)n2cncn2)cc1)N1CCC(c2ccccc2)CC1 [HHS-0701, (4-((1H-1,2,4-triazol-1-yl)sulfonyl)phenyl)(4-phenylpiperidin-1-yl)methanone] | could block HHS-475 labeling of PTGR2; also recorded: concentration-dependent blockade of probe labeling | 11 | < 5 | HHS0701.Y (tyrosine sites that showed >80% reductions (SR >5) in probe labeling in cells treated with compounds (liganded sites)) | ~90 | –
O=C(NC1CC1)c1ccc(S(=O)(=O)n2cncn2)cc1 [HHS-0101, 4-((1H-1,2,4-triazol-1-yl)sulfonyl)-N-cyclopropylbenzamide] | not | 1.4 | – | – | – | –
O=C(NCc1ccccc1)c1ccc(S(=O)(=O)n2cncn2)cc1 [HHS-0401, 4-((1H-1,2,4-triazol-1-yl)sulfonyl)-N-benzylbenzamide] | – | – | – | – | – | HHS0401.Y (tyrosine sites that showed >80% reductions (SR >5) in probe labeling in cells treated with compounds (liganded sites))
